Laboratory results as given in patent publication US8389573B2, “Glycyrrhetinic acid derivatives” (Wellington Laboratories Inc., priority 2006, dated 2013).

Tests used:
[1] = system: Panc28 pancreatic cancer cells; assay: Growth inhibition in Panc28 pancreatic cancer cells; type: cell-based; conditions: Pancreatic cancer cell
PPARγ [2] = assay: PPARγ-GAL4/pGAL4 transfection and luciferase assay in HT-29 cells; type: cell-based
Method: (§1) The Gal4 reporter containing 5× Gal4 response elements (pGal4) was kindly provided by Dr. Marty Mayo (University of North Carolina, Chapel Hill, N.C.). Gal4 DBD-PPARγ construct (gPPARγ) was a gift of Dr. Jennifer L. Oberfield (GlaxoSmithKline Research and Development, Research Triangle Park, N.C.). PPRE3-luc construct contains three tandem PPREs with a minimal TATA sequence in pGL2.
(§2) Colon Cancer cell lines SW480 and HT29 (1×10^5 cells/well) were plated in 12-well plates in DMEM/Ham's F-12 media supplemented with 2.5% charcoal-stripped FBS. After 16 h, various amounts of DNA [i.e., Gal4Luc (0.4 μg), β-Gal (0.04 μg), Gal4PPAR and PPRE3-Luc (0.04 μg)] were transfected using LipofectAMINE™ reagent (Invitrogen) following the manufacturer's protocol. Five hours after transfection, the transfection mix was replaced with complete media containing either vehicle (DMSO) or the indicated ligand for 20 to 22 h. Cells were then lysed with 100 μl of 1× reporter lysis buffer, and 30 μl of cell extract was used for luciferase and […] assays. A LumiCount™ luminometer (PerkinElmer Life and Analytical Sciences) was used to quantitate luciferase and β-Gal activities, and the luciferase activities were normalized to β-Gal activity. Results are expressed as means±S.E. for at least three replicate determinations for each treatment group

PPARγ [3] = target: T1, PPARγ (Homo sapiens, UniProt P37231); assay: PPRE3-Luc transfection and luciferase assay in SW480 cells; type: cell-based
T1 construct: endogenous in cells; host or cells: SW480 colon cancer cells
T1 sequence (P37231 1-505): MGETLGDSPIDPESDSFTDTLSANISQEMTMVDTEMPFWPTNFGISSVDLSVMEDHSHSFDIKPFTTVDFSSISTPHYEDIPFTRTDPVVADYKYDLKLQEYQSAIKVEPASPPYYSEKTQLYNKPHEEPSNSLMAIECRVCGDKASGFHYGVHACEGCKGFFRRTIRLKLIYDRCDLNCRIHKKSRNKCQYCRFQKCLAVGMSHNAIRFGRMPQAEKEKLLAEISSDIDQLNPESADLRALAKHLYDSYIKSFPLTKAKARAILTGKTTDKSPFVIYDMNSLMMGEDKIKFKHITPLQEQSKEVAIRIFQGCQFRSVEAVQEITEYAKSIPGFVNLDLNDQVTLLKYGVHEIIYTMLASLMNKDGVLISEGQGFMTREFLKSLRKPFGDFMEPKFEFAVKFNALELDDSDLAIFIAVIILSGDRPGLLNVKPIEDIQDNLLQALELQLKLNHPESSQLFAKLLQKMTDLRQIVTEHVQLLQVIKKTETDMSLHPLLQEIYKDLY
Method: as §1, §2

PPARγ [4] = assay: PPARγ-GAL4/GAL4-Luc or PPRE3-Luc transactivation in LNCaP cells; type: cell-based
Excerpt: Transfections: The Gal4 reporter construct containing 5× Gal4 response elements (pGal4) was kindly provided by Dr. Marty Mayo (University of North Carolina, Chapel Hill, N.C.). The Gal4 DBD-PPARγ construct was a gift of Dr. Jennifer L. Oberfield (Glaxo Wellcome Research and Development, Research Triangle Park, N.C.). The PPRE-luc construct contains three tandem PPREs with a minimal TATA sequence linked to the luciferase gene in pGL2. The AR-luc construct containing the −5400 to +580 region of the androgen receptor promoter was provided by Dr. Donald J. Tindall (Mayo Clinic, Rochester, Minn.), and the PSA-luc construct containing the 5.8-kilobase region of the PSA promoter was provided by Dr. Hong-Wu Cheng (University of California, Davis, Calif.). LNCaP cells (1×10^5) were seeded in 12-well plates in DMEM/Ham's F-12 media supplemented with 2.5% charcoal-stripped FBS and grown overnight. Transient transfections were performed using Lipofectamine reagent (Invitrogen) according to the protocol provided by the manufacturer. Transfection studies were performed using 0.4 μg of Gal4Luc, 0.04 μg of β-galactosidase, 0.04 μg of Gal4 DBD-PPARγ, 0.4 μg of AR-luc, and 0.3 μg of PSA-luc. Six hr after transfection, the transfection mix was replaced with complete media containing either vehicle (DMSO) or the indicated ligand for 20 to 22 hr. Cells were then lysed with 100 μl of 1× reporter lysis buffer, and 30 μl of cell extract was used for luciferase and β-galactosidase assays. A Lumicount luminometer (PerkinElmer Life and Analytical Sciences) was used to quantify luciferase and β-galactosidase activities, and the luciferase activities were normalized to β-galactosidase activity.

HT-29 cells = assay: Western blot analysis in HT-29 cells; type: cell-based, human
Method: SW-480 and HT-29 (3×10^5) cells were seeded in six-well plates in DMEM/Ham's F-12 media containing 2.5% charcoal-stripped FBS for 24 h and then treated with either the vehicle (DMSO) or the indicated compounds. Whole-cell lysates were obtained using high-salt buffer [50 mM HEPES, 500 mM NaCl, 1.5 mM MgCl2, 1 mM EGTA, 10% glycerol, and 1% Triton X-100, pH 7.5, and 5 μl/ml Protease Inhibitor Cocktail (Sigma-Aldrich)]. Protein samples were incubated at 100° C. for 2 min, separated on 10% SDS-PAGE at 120 V for 3 to 4 h in 1× running buffer (25 mM Tris-base, 192 mM glycine, and 0.1% SDS, pH 8.3), and transferred to polyvinylidene difluoride membrane (PVDF; Bio-Rad, Hercules, Calif.) at […] for 16 h at 4° C. in 1× transfer buffer (48 mM Tris-HCl, 39 mM glycine, and 0.025% SDS). The PVDF membrane was blocked in 5% TBST-Blotto (10 mM Tris-HCl, 150 mM NaCl, pH 8.0, 0.05% Triton X-100, and 5% nonfat dry milk) with gentle shaking for 30 min and was incubated in fresh 5% TBST-Blotto with 1:1000 (for caveolin-1, p27, p21, cyclin D1, Grp78), 1:500 (for KLF4, NAG-1), 1:250 (for PARP), and 1:5000 (for β-actin) primary antibody overnight with gentle shaking at 4° C. After washing with TBST for 10 min, the PVDF membrane was incubated with secondary antibody (1:5000) in 5% TBST-Blotto for 90 min. The membrane was washed with TBST for 10 min, incubated with 10 ml of chemiluminescence substrate (PerkinElmer) for 1.0 min, and exposed to Kodak X-OMAT AR autoradiography film (Eastman Kodak, Rochester, N.Y.).

IC50 [1]: 1000 to 2500 nM
transactivation of PPRE3-Luc (PPARγ [3]): induced transactivation
PPRE3-Luc transactivation after cotreatment with PPARγ antagonists T007 and GW9662 (PPARγ [3]; 10 μM antagonist): inhibited
melting point: 243 to 245 °C
SMILES: COC(=O)[C@@]1(C)CC[C@]2(C)CC[C@]3(C)C(=CC(=O)[C@@H]4[C@@]5(C)C=C(C#N)C(=O)C(C)(C)[C@@H]5CC[C@]43C)[C@@H]2C1 [β-CDODA-Me, Methyl 2-cyano-3,11-dioxo-18β-oleana-1,12-dien-30-oate]
PPARγ transactivation (GAL4-PPARγ/GAL4-Luc) (PPARγ [2]): induced transactivation
induced transactivation after cotreatment with 10 μM T007 (PPARγ [4]): significant inhibition of induced transactivation
PPARγ-dependent transactivation (luciferase activity) (PPARγ [4]; 1-5 μM): significantly induced luciferase activity
NAG-1 and KLF4 proteins (HT-29 cells; HT-29, 24 hours): induction of NAG-1 and KLF4 proteins
PARP cleavage (HT-29 cells; HT-29, 24 hours): induction of PARP cleavage
NAG-1 protein levels (HT-29 cells; HT-29, 24 hours, higher (5 μM) concentration): decreased
induction of NAG-1 and PARP cleavage after cotreatment with T007 (HT-29 cells; HT-29, 24 hr): not affected
KLF-4 induction after cotreatment with T007 (HT-29 cells; HT-29, 24 hr, 10 μM T007): blocks this induction response
caveolin-1 (HT-29 cells; HT-29, 3 days): induction of caveolin-1
induction of caveolin-1 after cotreatment with T007 (HT-29 cells; HT-29, 96 hr, 10 μM T007): inhibited
